The values that follow come from article PMC10178127, “Immunomodulatory Effects of the Pea Defensin Psd1 in the Caco-2/Immune Cells Co-Culture upon Candida albicans Infection” (International Journal of Molecular Sciences, 2023).

The subject of this assay is C. albicans v47a3. Kind of assay: Antifungal activity, microdilution method. In kind it is cell-based, Candida albicans. As for the experimental part: Antifungal activity of recombinant Psd1 against C. albicans v47a3 was tested by the microdilution method using 96-well microplates mainly as described for this defensin in [15]. Yeast cells in half-modified YPD broth at a final concentration of 10^4 cells/mL were used. Final Psd1 concentrations in the wells were 100, 50, 25, 12.5, 6.25, 3.125, and 1.56 μM. Plates were incubated at 30 °C for 24 h. Yeast growth was estimated using an inverted microscope as well as by measuring the optical density at 540 nm. The percentage of growth inhibition was defined as growth inhibition(%) = ((Acontrol − Asample)/Acontrol) × 100%. All of the experiments were performed twice in triplicate.

As to “Psd1: pea defensin from Pisum sativum (UNIPROT P81929), recombinant peptide overexpressed in Escherichia coli (KTCEHLADTYRGVCFTNASCDDHCKNKAHLISGTCHNWKCFCTQNC; UniProt P81929 1-46, looked up)”, the IC50 (C. albicans v47a3, 10^4 cells/mL, half-modified YPD broth, 30 °C, 24 h, OD 540 nm, twice in triplicate, read-out: concentration of 50% growth inhibition of yeast cells) came to 25 µM. For the same substance, the “effect on the morphology of the fungus” value (C. albicans v47a3, inverted microscope) was “did not affect the morphology of the fungus”.
